Source: the NIST ThermoML archive (doi:10.1021/je0601457)

Experiment: xn = mol fraction of the nth substance listed

Cc1cnccn1 [2-methylpyrazine] + O=C=O
Fluid (supercritical or subcritical phases), Linear displacement technique
Details	mass density [kg/m3]
329.15 K, 13140 kPa, x1 = 0.017	626
329.15 K, 14240 kPa, x1 = 0.017	652
331.05 K, 10450 kPa, x1 = 0.081	785
331.05 K, 10590 kPa, x1 = 0.081	785
331.65 K, 6380 kPa, x1 = 0.624	896
331.65 K, 9900 kPa, x1 = 0.624	901
331.65 K, 13480 kPa, x1 = 0.624	904
331.65 K, 18240 kPa, x1 = 0.624	910
332.35 K, 11210 kPa, x1 = 0.023	375
332.35 K, 12340 kPa, x1 = 0.023	438
332.35 K, 13280 kPa, x1 = 0.023	470
332.35 K, 15340 kPa, x1 = 0.023	519
332.35 K, 16620 kPa, x1 = 0.023	540
332.45 K, 12000 kPa, x1 = 0.122	863
332.45 K, 13550 kPa, x1 = 0.122	881
332.45 K, 15590 kPa, x1 = 0.122	901
333.55 K, 11790 kPa, x1 = 0.033	617
333.55 K, 12720 kPa, x1 = 0.033	679
333.55 K, 13340 kPa, x1 = 0.033	719
333.55 K, 15340 kPa, x1 = 0.033	780
335.65 K, 9480 kPa, x1 = 0.264	822
335.65 K, 10900 kPa, x1 = 0.264	829
335.65 K, 14380 kPa, x1 = 0.264	842
335.65 K, 17720 kPa, x1 = 0.264	852
336.95 K, 12340 kPa, x1 = 0.062	716
336.95 K, 13280 kPa, x1 = 0.062	743
336.95 K, 14520 kPa, x1 = 0.062	775
336.95 K, 16970 kPa, x1 = 0.062	820
337.05 K, 3620 kPa, x1 = 0.857	892
337.05 K, 5550 kPa, x1 = 0.857	893
337.05 K, 9000 kPa, x1 = 0.857	897
337.05 K, 13590 kPa, x1 = 0.857	901
338.55 K, 12240 kPa, x1 = 0.081	752
338.55 K, 13210 kPa, x1 = 0.081	765
338.55 K, 14930 kPa, x1 = 0.081	774
339.25 K, 10930 kPa, x1 = 0.156	847
339.25 K, 13760 kPa, x1 = 0.156	869
339.25 K, 17210 kPa, x1 = 0.156	884
340.45 K, 11280 kPa, x1 = 0.017	346
340.45 K, 11480 kPa, x1 = 0.017	371
340.45 K, 11970 kPa, x1 = 0.017	408
340.45 K, 12790 kPa, x1 = 0.017	455
341.55 K, 14410 kPa, x1 = 0.091	782
341.55 K, 15410 kPa, x1 = 0.091	801
341.55 K, 17340 kPa, x1 = 0.091	828
342.35 K, 11760 kPa, x1 = 0.023	283
342.35 K, 11970 kPa, x1 = 0.023	291
342.35 K, 12340 kPa, x1 = 0.023	300
344.65 K, 12480 kPa, x1 = 0.033	482
344.65 K, 13170 kPa, x1 = 0.033	529
344.65 K, 13860 kPa, x1 = 0.033	578
344.65 K, 14660 kPa, x1 = 0.033	620
344.65 K, 15310 kPa, x1 = 0.033	649
344.65 K, 16550 kPa, x1 = 0.033	683
344.95 K, 11340 kPa, x1 = 0.339	920
344.95 K, 18720 kPa, x1 = 0.339	941
345.05 K, 10790 kPa, x1 = 0.264	808
345.05 K, 12720 kPa, x1 = 0.264	818
345.05 K, 15280 kPa, x1 = 0.264	828
345.05 K, 19170 kPa, x1 = 0.264	842
346.15 K, 14380 kPa, x1 = 0.039	582
346.15 K, 15070 kPa, x1 = 0.039	617
348.65 K, 7590 kPa, x1 = 0.624	879
348.65 K, 11830 kPa, x1 = 0.624	884
348.65 K, 16240 kPa, x1 = 0.624	890

Liquid, linear displacement
Details	mass density [kg/m3]
331.05 K, x1 = 0.081	785
331.65 K, x1 = 0.624	892
332.35 K, x1 = 0.023	323
332.45 K, x1 = 0.122	840
333.55 K, x1 = 0.033	574
335.65 K, x1 = 0.264	822
336.95 K, x1 = 0.062	689
337.05 K, x1 = 0.857	888
338.55 K, x1 = 0.081	746
339.25 K, x1 = 0.156	843
341.55 K, x1 = 0.091	731
344.95 K, x1 = 0.339	913
345.05 K, x1 = 0.264	808
346.15 K, x1 = 0.039	462
